# Data taken from ChEMBL document CHEMBL3044945, “Synthesis of 1,3,5-trisubstituted pyrazoline nucleus containing compounds and screening for antimicrobial activity” (2012).
# Legend:
# Assay type in all cases: functional
# Bacillus subtilis [1] = assay: Antibacterial activity against Bacillus subtilis MTCC 441 at 250 ug/ml after 48 hr by cup-plate method; conditions: MTCC 441, 48 h, read-out: DIZ
# Pseudomonas aeruginosa [2] = assay: Antibacterial activity against Pseudomonas aeruginosa MTCC 424 at 500 ug/ml after 48 hr by cup-plate method; conditions: MTCC 424, 48 h, read-out: DIZ
# Pseudomonas aeruginosa [3] = assay: Antibacterial activity against Pseudomonas aeruginosa MTCC 424 at 250 ug/ml after 48 hr by cup-plate method; conditions: MTCC 424, 48 h, read-out: DIZ
# Bacillus pumilus [4] = assay: Antibacterial activity against Bacillus pumilus MTCC 1456 after 24 to 48 hr by tube dilution method
# Pseudomonas aeruginosa [5] = assay: Antibacterial activity against Pseudomonas aeruginosa MTCC 424 after 24 to 48 hr by tube dilution method
# Bacillus subtilis [6] = assay: Antibacterial activity against Bacillus subtilis MTCC 441 at 500 ug/ml after 48 hr by cup-plate method; conditions: MTCC 441, 48 h, read-out: DIZ
# Penicillium chrysogenum = assay: Antifungal activity against Penicillium chrysogenum MTCC 161 after 24 to 48 hr by tube dilution method
# Bacillus pumilus [7] = assay: Antibacterial activity against Bacillus pumilus MTCC 1456 at 250 ug/ml after 48 hr by cup-plate method; conditions: MTCC 1456, 48 h, read-out: DIZ
# Micrococcus luteus [8] = assay: Antibacterial activity against Micrococcus luteus MTCC 1538 at 750 ug/ml after 48 hr by cup-plate method; conditions: MTCC 1538, 48 h, read-out: DIZ
# Staphylococcus aureus [9] = assay: Antibacterial activity against Staphylococcus aureus MTCC 1430 at 500 ug/ml after 48 hr by cup-plate method; conditions: MTCC 1430, 48 h, read-out: DIZ
# Aspergillus niger [10] = assay: Antifungal activity against Aspergillus niger MTCC 2546 at 1250 ug/ml after 48 hr by cup-plate method; conditions: MTCC 2546, 48 h, read-out: DIZ
# Pseudomonas aeruginosa [11] = assay: Antibacterial activity against Pseudomonas aeruginosa MTCC 424 at 100 ug/ml after 48 hr by cup-plate method; conditions: MTCC 424, 48 h, read-out: DIZ
# Escherichia coli [12] = assay: Antibacterial activity against Escherichia coli MTCC 1573 at 1000 ug/ml after 48 hr by cup-plate method; conditions: MTCC 1573, 48 h, read-out: DIZ
# Escherichia coli [13] = assay: Antibacterial activity against Escherichia coli MTCC 1573 at 100 ug/ml after 48 hr by cup-plate method; conditions: MTCC 1573, 48 h, read-out: DIZ
# Micrococcus luteus [14] = assay: Antibacterial activity against Micrococcus luteus MTCC 1538 after 24 to 48 hr by tube dilution method
# Bacillus pumilus [15] = assay: Antibacterial activity against Bacillus pumilus MTCC 1456 at 500 ug/ml after 48 hr by cup-plate method; conditions: MTCC 1456, 48 h, read-out: DIZ
# Micrococcus luteus [16] = assay: Antibacterial activity against Micrococcus luteus MTCC 1538 at 1250 ug/ml after 48 hr by cup-plate method; conditions: MTCC 1538, 48 h, read-out: DIZ
# Staphylococcus aureus [17] = assay: Antibacterial activity against Staphylococcus aureus MTCC 1430 after 24 to 48 hr by tube dilution method
# Pseudomonas fluorescens [18] = assay: Antibacterial activity against Pseudomonas fluorescens MTCC 2421 at 500 ug/ml after 48 hr by cup-plate method; conditions: MTCC 2421, 48 h, read-out: DIZ
# Bacillus pumilus [19] = assay: Antibacterial activity against Bacillus pumilus MTCC 1456 at 100 ug/ml after 48 hr by cup-plate method; conditions: MTCC 1456, 48 h, read-out: DIZ
# Micrococcus luteus [20] = assay: Antibacterial activity against Micrococcus luteus MTCC 1538 at 500 ug/ml after 48 hr by cup-plate method; conditions: MTCC 1538, 48 h, read-out: DIZ
# Bacillus subtilis [21] = assay: Antibacterial activity against Bacillus subtilis MTCC 441 at 1000 ug/ml after 48 hr by cup-plate method; conditions: MTCC 441, 48 h, read-out: DIZ
# Bacillus pumilus [22] = assay: Antibacterial activity against Bacillus pumilus MTCC 1456 at 1250 ug/ml after 48 hr by cup-plate method; conditions: MTCC 1456, 48 h, read-out: DIZ
# Staphylococcus aureus [23] = assay: Antibacterial activity against Staphylococcus aureus MTCC 1430 at 1000 ug/ml after 48 hr by cup-plate method; conditions: MTCC 1430, 48 h, read-out: DIZ
# Pseudomonas fluorescens [24] = assay: Antibacterial activity against Pseudomonas fluorescens MTCC 2421 at 1000 ug/ml after 48 hr by cup-plate method; conditions: MTCC 2421, 48 h, read-out: DIZ
# Micrococcus luteus [25] = assay: Antibacterial activity against Micrococcus luteus MTCC 1538 at 250 ug/ml after 48 hr by cup-plate method; conditions: MTCC 1538, 48 h, read-out: DIZ
# Aspergillus niger [26] = assay: Antifungal activity against Aspergillus niger MTCC 2546 after 24 to 48 hr by tube dilution method
# Bacillus subtilis [27] = assay: Antibacterial activity against Bacillus subtilis MTCC 441 at 100 ug/ml after 48 hr by cup-plate method; conditions: MTCC 441, 48 h, read-out: DIZ
smiles,measurement,setting,value
O=[N+]([O-])c1ccc(C2CC(c3cccc4ccccc34)=NN2c2ccc([N+](=O)[O-])cc2[N+](=O)[O-])cc1 (stereo not drawn),zone of inhibition at 250 µg/mL,Bacillus subtilis [1],12 mm
same,zone of inhibition at 500 µg/mL,Pseudomonas aeruginosa [2],12 mm
same,zone of inhibition at 250 µg/mL,Pseudomonas aeruginosa [3],11 mm
same,MIC,Bacillus pumilus [4],30 µg/mL
same,MIC,Pseudomonas aeruginosa [5],50 µg/mL
same,zone of inhibition at 500 µg/mL,Bacillus subtilis [6],13 mm
same,MIC,Penicillium chrysogenum,50 µg/mL
same,zone of inhibition at 250 µg/mL,Bacillus pumilus [7],11 mm
same,zone of inhibition at 750 µg/mL,Micrococcus luteus [8],11 mm
same,zone of inhibition at 500 µg/mL,Staphylococcus aureus [9],9 mm
same,zone of inhibition at 1250 µg/mL,Aspergillus niger [10],23 mm
same,zone of inhibition at 100 µg/mL,Pseudomonas aeruginosa [11],10 mm
same,zone of inhibition at 1000 µg/mL,Escherichia coli [12],14 mm
same,zone of inhibition at 100 µg/mL,Escherichia coli [13],9 mm
same,MIC,Micrococcus luteus [14],150 µg/mL
same,zone of inhibition at 500 µg/mL,Bacillus pumilus [15],18 mm
same,zone of inhibition at 1250 µg/mL,Micrococcus luteus [16],14 mm
same,MIC,Staphylococcus aureus [17],150 µg/mL
same,zone of inhibition at 500 µg/mL,Pseudomonas fluorescens [18],18 mm
same,zone of inhibition at 100 µg/mL,Bacillus pumilus [19],10 mm
same,zone of inhibition at 500 µg/mL,Micrococcus luteus [20],10 mm
same,zone of inhibition at 1000 µg/mL,Bacillus subtilis [21],15 mm
same,zone of inhibition at 1250 µg/mL,Bacillus pumilus [22],24 mm
same,zone of inhibition at 1000 µg/mL,Staphylococcus aureus [23],12 mm
same,zone of inhibition at 1000 µg/mL,Pseudomonas fluorescens [24],22 mm
same,zone of inhibition at 250 µg/mL,Micrococcus luteus [25],9 mm
same,MIC,Aspergillus niger [26],150 µg/mL
same,zone of inhibition at 100 µg/mL,Bacillus subtilis [27],11 mm
